Experimental data from patent US20220202771A1, “Antidepressants for the Treatment or Prevention of Memory Loss and/or Cognitive Decline or Dysfunction in Aging” (UNIVERSITY OF NORTH TEXAS HEALTH SCIENCE CENTER AT FORT …, priority 2019, published 2022).
Counter-ions that a name gives are not always drawn. Like-named read-outs stand apart in the source and are kept apart here.

How the values were obtained:
[1] = test system: individuals with a diagnosis of MCI with DepE scores >=2; conditions: 4 months duloxetine 30-60 mg/day, n=16 participants in the trial
Procedure: Treatment duration was 4 months of duloxetine versus placebo. The initial dosage consisted of 30 mg/day duloxetine or placebo; after two weeks, dosage was increased to 60 mg/day. Dosage during the last two weeks of the 4-month study was reduced to 30 mg/day. […] In this study, the inventors recruited n=16 participants with clinical diagnosis of amnestic MCI (single or multi-domain). N=14 subjects enrolled were of Mexican American ethnicity.

[2] = test system: individuals with a diagnosis of MCI with DepE scores >=2
Procedure: (§1) Next, the inventors conducted an investigator-initiated clinical trial (NCT02590874). […] Treatment duration was 4 months of duloxetine versus placebo. The initial dosage consisted of 30 mg/day duloxetine or placebo; after two weeks, dosage was increased to 60 mg/day. Dosage during the last two weeks of the 4-month study was reduced to 30 mg/day. Secondary endpoints of change in Repeatable Battery for the Assessment of Neuropsychological Status (RBANS) memory scores from baseline to study completion were analyzed. In this study, the inventors recruited n=16 participants with clinical diagnosis of amnestic MCI (single or multi-domain).

[3] = test system: individuals with a diagnosis of MCI with elevated DepE scores; conditions: treatment group, follow-up after 4 months
Procedure: as §1
Fasting blood samples were collected at baseline and follow-up. Several plasma biomarkers were assessed to determine neurodegeneration over treatment duration: Neurofilament light (NfL)(FIG. 6), Tau (FIG. 5), Aβ40 (FIG. 4) and Aβ42 (FIG. 3).

[4] = Baseline, amnestic MCI participants, duloxetine group before treatment
[5] = Follow-up, 4 months treatment, 30 mg/day then 60 mg/day, last two weeks 30 mg/day, *p < .05

CNCC[C@H](Oc1cccc2ccccc12)c1cccs1 [Duloxetine, N-methyl-γ-(1-naphthalenyloxy)-2-thiopropanamine hydrochloride]
Serious Adverse Effects (SAEs) [1]: no Serious Adverse Effects (SAEs) were identified
RBANS Delayed Memory [2, 4]: 76.63(11.01)
RBANS Immediate Memory [2, 4]: 74.62(11.17)
RBANS Total [2, 4]: 72.37(5.12)
RBANS Delayed Memory [2, 5]: 91.50(6.98)*
RBANS Immediate Memory [2, 5]: 88.75(11.43)*
RBANS Total [2, 5]: 80.37(5.31)*
effect on memory abilities ([2]; MCI patients elevated in the depressive endophenotype, summary statement of the clinical trial): significant benefit
change in RBANS Delayed Memory scores over treatment duration ([2]; treatment group, 4 months, no significant change in the placebo group (p<0.05), FIG. 2): significant improvement
markers of neurodegeneration (NfL, Tau, Aβ40, Aβ42) at follow-up ([3]; MCI cases with elevated DepE scores): primarily stable
plasma Aβ42, baseline versus follow-up ([3]; placebo group showed significant increase, FIG. 3): no significant differences
plasma Aβ40, baseline versus follow-up ([3]; placebo group showed significant increase, FIG. 4): no significant differences
